Test results as given in ChEMBL document CHEMBL1143025, “Synthesis of carbamate derivatives of iejimalides. Retention of normal antiproliferative activity and localization of binding in cancer cells” (2007).
Calls of active or inactive are those of the source. No cut-off for these calls is given here.

What was measured:
PC-3 [1] = assay: Disruption of microtubules in human PC3 cells at 100 nM after 12 hrs; assay type: functional, cell-based
MCF7 = assay: Antiproliferative activity against human MCF7 cells after 72 hrs by MTT assay; assay type: functional; conditions: MCF7, 72 h
SK-BR-3 = assay: Antiproliferative activity against human SKBr3 cells after 72 hrs by MTT assay; assay type: functional; conditions: SK-BR-3, 72 h
PC-3 [2] = assay: Antiproliferative activity against human PC3 cells after 72 hrs by MTT assay; assay type: functional; conditions: PC-3, 72 h
[3] = Antiproliferative activity against human MDA231 cells after 72 hrs by MTT assay; assay type: functional; conditions: MDA-MB-231, 72 h

Compound | Activity (PC-3 [1]) | GI50 (MCF7) | GI50 (SK-BR-3) | GI50 (PC-3 [2]) | GI50 [3]
CC(=O)O[C@H]1C(=O)[C@@]2(C)[C@H]([C@H](OC(=O)c3ccccc3)[C@]3(O)C[C@H](OC(=O)[C@H](O)[C@@H](NC(=O)c4ccccc4)c4ccccc4)C(C)=C1C3(C)C)[C@]1(OC(C)=O)CO[C@@H]1C[C@@H]2O | Active |  |  |  | 
CO[C@@H]1/C=C(C)/C=C/[C@@H](C)/C=C(\C)C(=O)O[C@H](/C(C)=C/C=C(\C)CNC(=O)[C@H](COC(=O)Nc2ccccc2)NC=O)[C@@H](C)/C=C/C=C/[C@@H](OC)CC/C=C(C)\C=C\C1 |  | 8.3 nM | 10.5 nM | 9.9 nM | 8.8 nM
CO[C@@H]1/C=C(C)/C=C/[C@@H](C)/C=C/C(=O)O[C@H](/C(C)=C/C=C(\C)CNC(=O)[C@H](COC(=O)Nc2ccccc2)NC=O)[C@@H](C)/C=C/C=C/[C@@H](OC)CC/C=C(C)\C=C\C1 |  | 7.5 nM | 20 nM | 15.3 nM | 12 nM
